Earlier results, collected in patent publication US20100112102A1, “THERAPEUTIC COMPOSITIONS FOR THE TREATMENT OF BENIGH PROSTATE HYPERPLASIA, PROSTATITIS, IMPOTENCE, INFERTILITY AND PROSTATE CANCER AND A METHOD FOR THE USE THEREOF” (priority 2007, published 2010).

Tested on: 5α-reductase
Details: one group of patients

CC(C)(C)NC(=O)[C@H]1CC[C@H]2[C@@H]3CC[C@H]4NC(=O)C=C[C@]4(C)[C@H]3CC[C@]12C [Finasteride]
J-PSS parameters, decrease on average: 20%
maximal rate of urination, increase: 32.5%
prostate size, decrease on average: 32%
